Reference: patent US9012166B2, “Method for assaying histone methylation enzyme activity” (Kyushu Institute of Technology, priority 2010, dated 2015)

Key:
G9a = target: T1, G9a (Mus musculus, UniProt Q9Z148); assay: Western blot evaluation of histone methyltransferase inhibitor, G9a; type: biochemical; settings: FIG. 17
T1 sequence (Q9Z148 1-1263): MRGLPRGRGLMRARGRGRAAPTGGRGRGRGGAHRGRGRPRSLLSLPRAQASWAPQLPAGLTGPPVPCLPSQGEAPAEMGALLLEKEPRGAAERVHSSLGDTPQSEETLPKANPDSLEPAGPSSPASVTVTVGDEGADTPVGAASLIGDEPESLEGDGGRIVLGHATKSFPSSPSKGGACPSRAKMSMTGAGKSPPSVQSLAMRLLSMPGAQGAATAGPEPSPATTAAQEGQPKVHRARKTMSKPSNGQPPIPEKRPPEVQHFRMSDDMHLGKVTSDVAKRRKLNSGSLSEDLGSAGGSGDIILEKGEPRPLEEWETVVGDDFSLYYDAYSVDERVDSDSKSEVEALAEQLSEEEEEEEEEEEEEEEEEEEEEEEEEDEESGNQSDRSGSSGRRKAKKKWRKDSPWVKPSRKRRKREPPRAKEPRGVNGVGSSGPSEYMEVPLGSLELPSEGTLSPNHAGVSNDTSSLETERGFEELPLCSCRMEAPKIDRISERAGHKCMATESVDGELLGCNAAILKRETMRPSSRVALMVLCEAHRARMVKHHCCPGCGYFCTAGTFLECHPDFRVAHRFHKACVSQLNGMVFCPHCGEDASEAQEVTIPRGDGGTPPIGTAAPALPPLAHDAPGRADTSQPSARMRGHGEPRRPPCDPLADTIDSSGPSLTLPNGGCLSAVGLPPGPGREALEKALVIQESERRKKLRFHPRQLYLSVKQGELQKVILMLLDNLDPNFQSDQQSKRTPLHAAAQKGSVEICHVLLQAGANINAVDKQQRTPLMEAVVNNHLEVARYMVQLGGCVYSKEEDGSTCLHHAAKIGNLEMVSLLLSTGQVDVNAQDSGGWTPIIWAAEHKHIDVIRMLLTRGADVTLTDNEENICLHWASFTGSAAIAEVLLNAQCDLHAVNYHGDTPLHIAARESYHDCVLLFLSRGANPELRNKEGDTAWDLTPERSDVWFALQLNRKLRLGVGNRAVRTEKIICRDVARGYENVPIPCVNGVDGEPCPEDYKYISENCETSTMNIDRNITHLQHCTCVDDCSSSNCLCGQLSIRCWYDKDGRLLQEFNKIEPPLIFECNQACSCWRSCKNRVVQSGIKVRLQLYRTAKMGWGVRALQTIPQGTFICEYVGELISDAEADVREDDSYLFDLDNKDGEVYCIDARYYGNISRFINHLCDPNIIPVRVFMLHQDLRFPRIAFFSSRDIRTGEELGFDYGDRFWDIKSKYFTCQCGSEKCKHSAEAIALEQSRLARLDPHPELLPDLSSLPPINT
Procedure: To examine whether the activity of a histone methyltransferase inhibitor could be evaluated by an assay for measuring histone methyltransferase activity using a peptidyl MCA, the assay for measuring histone methyltransferase activity was attempted. However, the activity of gliotoxin as a histone methyltransferase inhibitor was evaluated by Western blot, prior to the assay for measuring histone methyltransferase activity. Gliotoxin is known not to inhibit the methylation activity of Set9 but to inhibit the methylation activity of G9a. […] The following assay for measuring histone methyltransferase activity was carried out in order to examine whether the same results as those from the Western blot could also be obtained from the assay for measuring histone methyltransferase activity.

trypsin = assay: LC/MS analysis of reaction between substrate compound and trypsin; type: biochemical; settings: Example 3; 37° C., 15 minutes
Procedure: Distilled water was added to 10 μL of 2×HMT buffer (100 mM Tris-HCl (pH 8.5), 20 mM MgCl2, 40 mM KCl, 20 mM 2-mercaptoethanol, 500 mM sucrose) and 1 μL of a BocLysMCA solution to adjust the total volume to 20 μL. To the resultant solution was added 30 μL of a peptidase solution (20 mg/mL trypsin or 20 mAU/mL lysyl endopeptidase), which was then mixed and incubated at 37° C. for 15 minutes. Then, the solution was applied to a liquid chromatograph mass spectrometer (LC/MS) for analysis. Analysis was performed by the same method as that for the above analysis except for using monomethylated BocLysMCA (i.e., “BocLys(Me)MCA”), dimethylated BocLysMCA (i.e., “BocLys(Me)2MCA”), or trimethylated BocLysMCA (i.e., “BocLys(Me)3MCA”) in place of BocLysMCA. Analysis was also carried out by the same method except for using, in place of the above-described peptidase solution, an equal volume of distilled water.

CN1C(=O)[C@]23CC4=CC=C[C@H](O)[C@H]4N2C(=O)[C@@]1(CO)SS3 [gliotoxin]
inhibition of the methylation of G9a (Western blot) (G9a): inhibited

Cc1cc(=O)oc2cc(NC(=O)C(CCCCN)NC(=O)OC(C)(C)C)ccc12 (centres unmarked) [BocLysMCA, Boc-K-MCA]
hydrolysis by trypsin (LC/MS peaks) (trypsin): most BocLysMCA was hydrolyzed
